In ChEMBL document CHEMBL4325853, “Design, synthesis and antibacterial evaluation of 2,4-disubstituted-6-thiophenyl-pyrimidines” (Eur J Med Chem, 2019):
Values after ≈ are worked out from the molar mass of the structure shown. Active and inactive are the calls of the source. The rule behind the calls is not given here.

Key:
[1] = system: Bacillus subtilis; test: Antibacterial activity against Bacillus subtilis 168 after 18 hrs by broth microdilution method; format: functional; details: subsp. subtilis str. 168, 18 h
[2] = system: Enterococcus faecium; test: Antibacterial activity against Enterococcus faecium ATCC 49624 after 18 hrs by broth microdilution method; format: functional; details: ATCC 49624, 18 h
[3] = system: Escherichia coli; test: Antibacterial activity against Escherichia coli ATCC 25922 after 18 hrs by broth microdilution method; format: functional; details: ATCC 25922, 18 h
[4] = system: Staphylococcus aureus; test: Antibacterial activity against methicillin-resistant Staphylococcus aureus ATCC 33591 after 18 hrs by broth microdilution method; format: functional; details: ATCC 33591, 18 h
[5] = system: Staphylococcus aureus; test: Antibacterial activity against methicillin-resistant Staphylococcus aureus ATCC 33592 after 18 hrs by broth microdilution method; format: functional; details: ATCC 33592, 18 h
[6] = system: Enterococcus faecalis; test: Antibacterial activity against vancomycin-resistant Enterococcus faecalis ATCC 51575 after 18 hrs by broth microdilution method; format: functional; details: ATCC 51575, 18 h
[7] = system: Enterococcus faecalis; test: Antibacterial activity against vancomycin-resistant Enterococcus faecalis ATCC 700221 after 18 hrs by broth microdilution method; format: functional; details: ATCC 700221, 18 h
[8] = system: Staphylococcus aureus; test: Antibacterial activity against methicillin-resistant Staphylococcus aureus isolate 7247 after 18 hrs by broth microdilution method; format: functional; details: isolate 7247, 18 h
[9] = system: Staphylococcus aureus; test: Antibacterial activity against methicillin-resistant Staphylococcus aureus isolate 2671 after 18 hrs by broth microdilution method; format: functional; details: isolate 2671, 18 h
[10] = system: Staphylococcus aureus; test: Antibacterial activity against methicillin-resistant Staphylococcus aureus isolate 4127 after 18 hrs by broth microdilution method; format: functional; details: isolate 4127, 18 h
[11] = system: Staphylococcus aureus; test: Antibacterial activity against methicillin-resistant Staphylococcus aureus isolate 7807 after 18 hrs by broth microdilution method; format: functional; details: isolate 7807, 18 h
[12] = system: Staphylococcus aureus; test: Antibacterial activity against methicillin-resistant Staphylococcus aureus isolate 2931 after 18 hrs by broth microdilution method; format: functional; details: isolate 2931, 18 h
[13] = system: Staphylococcus aureus; test: Antibacterial activity against methicillin-resistant Staphylococcus aureus isolate 7863 after 18 hrs by broth microdilution method; format: functional; details: isolate 7863, 18 h
[14] = system: Staphylococcus aureus; test: Antibacterial activity against methicillin-resistant Staphylococcus aureus isolate 7943 after 18 hrs by broth microdilution method; format: functional; details: isolate 7943, 18 h
[15] = system: Staphylococcus aureus; test: Antibacterial activity against methicillin-resistant Staphylococcus aureus isolate 7947 after 18 hrs by broth microdilution method; format: functional; details: isolate 7947, 18 h
[16] = system: Staphylococcus aureus; test: Antibacterial activity against methicillin-resistant Staphylococcus aureus isolate 7813 after 18 hrs by broth microdilution method; format: functional; details: isolate 7813, 18 h
[17] = system: Staphylococcus aureus; test: Antibacterial activity against methicillin-resistant Staphylococcus aureus isolate 6334 after 18 hrs by broth microdilution method; format: functional; details: isolate 6334, 18 h
[18] = system: Staphylococcus aureus; test: Antibacterial activity against methicillin-resistant Staphylococcus aureus isolate 7972 after 18 hrs by broth microdilution method; format: functional; details: isolate 7972, 18 h
[19] = system: Staphylococcus aureus; test: Antibacterial activity against methicillin-resistant Staphylococcus aureus isolate 1220 after 18 hrs by broth microdilution method; format: functional; details: isolate 1220, 18 h
[20] = system: Staphylococcus aureus; test: Antibacterial activity against methicillin-resistant Staphylococcus aureus isolate 7960 after 18 hrs by broth microdilution method; format: functional; details: isolate 7960, 18 h
[21] = system: Staphylococcus aureus; test: Antibacterial activity against methicillin-resistant Staphylococcus aureus isolate 1651 after 18 hrs by broth microdilution method; format: functional; details: isolate 1651, 18 h
[22] = system: Staphylococcus aureus; test: Antibacterial activity against methicillin-resistant Staphylococcus aureus isolate 8071 after 18 hrs by broth microdilution method; format: functional; details: isolate 8071, 18 h
[23] = system: Staphylococcus aureus; test: Antibacterial activity against methicillin-resistant Staphylococcus aureus isolate 4955 after 18 hrs by broth microdilution method; format: functional; details: isolate 4955, 18 h
[24] = system: Staphylococcus aureus; test: Antibacterial activity against methicillin-resistant Staphylococcus aureus isolate 7844 after 18 hrs by broth microdilution method; format: functional; details: isolate 7844, 18 h
[25] = system: Staphylococcus aureus; test: Antibacterial activity against methicillin-resistant Staphylococcus aureus isolate 7916 after 18 hrs by broth microdilution method; format: functional; details: isolate 7916, 18 h
[26] = system: Staphylococcus aureus; test: Antibacterial activity against methicillin-resistant Staphylococcus aureus isolate 7682 after 18 hrs by broth microdilution method; format: functional; details: isolate 7682, 18 h
[27] = system: Staphylococcus aureus; test: Antibacterial activity against methicillin-resistant Staphylococcus aureus isolate 2350 after 18 hrs by broth microdilution method; format: functional; details: isolate 2350, 18 h
[28] = system: Staphylococcus aureus; test: Antibacterial activity against methicillin-resistant Staphylococcus aureus isolate 7664 after 18 hrs by broth microdilution method; format: functional; details: isolate 7664, 18 h
[29] = system: Staphylococcus aureus; test: Antibacterial activity against methicillin-resistant Staphylococcus aureus isolate 1708 after 18 hrs by broth microdilution method; format: functional; details: isolate 1708, 18 h
[30] = system: Staphylococcus aureus; test: Antibacterial activity against methicillin-resistant Staphylococcus aureus isolate 8078 after 18 hrs by broth microdilution method; format: functional; details: isolate 8078, 18 h
[31] = system: Staphylococcus aureus; test: Antibacterial activity against methicillin-resistant Staphylococcus aureus isolate 7434 after 18 hrs by broth microdilution method; format: functional; details: isolate 7434, 18 h
[32] = system: Staphylococcus aureus; test: Antibacterial activity against methicillin-resistant Staphylococcus aureus isolate 7449 after 18 hrs by broth microdilution method; format: functional; details: isolate 7449, 18 h
[33] = system: Staphylococcus aureus; test: Antibacterial activity against methicillin-resistant Staphylococcus aureus isolate 7183 after 18 hrs by broth microdilution method; format: functional; details: isolate 7183, 18 h
[34] = molecular target: T1, Cell division protein FtsZ (Staphylococcus aureus) (UniProt P0A031); test: Inhibition of recombinant Staphylococcus aureus FtsZ polymerization at 8 ug/ml by 90 degree light scattering-based fluorescence spectrometric analysis
T1 sequence (whole entry): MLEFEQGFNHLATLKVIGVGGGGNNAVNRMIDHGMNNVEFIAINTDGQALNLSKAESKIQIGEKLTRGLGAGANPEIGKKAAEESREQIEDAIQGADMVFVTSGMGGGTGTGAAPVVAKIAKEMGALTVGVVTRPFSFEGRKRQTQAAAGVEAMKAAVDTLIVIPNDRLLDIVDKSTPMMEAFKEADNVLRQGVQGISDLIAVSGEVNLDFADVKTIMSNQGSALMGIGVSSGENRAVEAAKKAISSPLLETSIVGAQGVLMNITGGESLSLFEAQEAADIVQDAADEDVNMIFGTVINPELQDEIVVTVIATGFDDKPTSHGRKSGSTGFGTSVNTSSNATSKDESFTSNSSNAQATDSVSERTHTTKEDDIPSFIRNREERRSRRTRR

[35] = system: Enterococcus faecium; test: Potency index, ratio of berberine MIC to test compound MIC for Enterococcus faecium ATCC 49624; format: functional
[36] = system: Enterococcus faecalis; test: Potency index, ratio of berberine MIC to test compound MIC for Enterococcus faecalis ATCC 29212; format: functional
[37] = system: Staphylococcus epidermidis; test: Potency index, ratio of berberine MIC to test compound MIC for Staphylococcus epidermidis ATCC 12228; format: functional
[38] = system: Staphylococcus aureus; test: Potency index, ratio of methicillin MIC to test compound MIC for methicillin-resistant Staphylococcus aureus ATCC 33592; format: functional
[39] = system: Staphylococcus aureus; test: Potency index, ratio of methicillin MIC to test compound MIC for methicillin-resistant Staphylococcus aureus ATCC 43300; format: functional
[40] = system: Staphylococcus aureus; test: Ratio of MBC to MIC for methicillin-resistant Staphylococcus aureus ATCC BAA41; format: functional
[41] = system: Enterococcus faecalis; test: Ratio of MBC to MIC for vancomycin-resistant Enterococcus faecalis ATCC 700221; format: functional

SMILES | MIC90 [1] [µg/mL] | MIC90 [2] [µg/mL] | MIC90 [3] [µg/mL] | MIC90 [4] [µg/mL] | MIC90 [5] [µg/mL] | MIC90 [6] [µg/mL] | MIC90 [7] [µg/mL] | MIC90 [8] [µg/mL] | MIC90 [9] [µg/mL] | MIC90 [10] [µg/mL] | MIC90 [11] [µg/mL] | MIC90 [12] [µg/mL] | MIC90 [13] [µg/mL] | MIC90 [14] [µg/mL] | MIC90 [15] [µg/mL] | MIC90 [16] [µg/mL] | MIC90 [17] [µg/mL] | MIC90 [18] [µg/mL] | MIC90 [19] [µg/mL] | MIC90 [20] [µg/mL] | further results
COc1cccc(OC)c1C(=O)N[C@@H]1C(=O)N2[C@@H]1SC(C)(C)[C@@H]2C(=O)O [METHICILLIN] | 0.5 (≈ 1.31 µM) | 4 (≈ 10.5 µM) | 4 (≈ 10.5 µM) | > 192 | > 192 | 6 (≈ 15.8 µM) | 6 (≈ 15.8 µM) | > 64 | > 64 | > 64 | > 64 | > 64 | > 64 | > 64 | > 64 | > 64 | > 64 | > 64 | > 64 | > 64 | MIC90 [21]: > 64 µg/mL; MIC90 [22]: > 64 µg/mL; MIC90 [23]: > 64 µg/mL; MIC90 [24]: > 64 µg/mL; MIC90 [25]: > 64 µg/mL; MIC90 [26]: > 64 µg/mL; MIC90 [27]: > 64 µg/mL; MIC90 [28]: > 64 µg/mL; MIC90 [29]: > 64 µg/mL; MIC90 [30]: > 64 µg/mL; MIC90 [31]: > 64 µg/mL; MIC90 [32]: > 64 µg/mL; MIC90 [33]: > 64 µg/mL; inhibition [34]: inactive
FC(F)(F)c1ccc(CN2CCCN(CCc3cc(-c4cccs4)nc(-c4ccncc4)n3)CC2)cc1 | 4 (≈ 7.64 µM) | 4 (≈ 7.64 µM) | 128 (≈ 244 µM) | 4 (≈ 7.64 µM) | 4 (≈ 7.64 µM) | 4 (≈ 7.64 µM) | 4 (≈ 7.64 µM) | 4 (≈ 7.64 µM) | 4 (≈ 7.64 µM) | 4 (≈ 7.64 µM) | 4 (≈ 7.64 µM) | 4 (≈ 7.64 µM) | 4 (≈ 7.64 µM) | 4 (≈ 7.64 µM) | 4 (≈ 7.64 µM) | 8 (≈ 15.3 µM) | 4 (≈ 7.64 µM) | 4 (≈ 7.64 µM) | 4 (≈ 7.64 µM) | 4 (≈ 7.64 µM) | Ratio [35]: 50 - 100; Ratio [36]: 50 - 100; Ratio [37]: 50 - 100; Ratio [38]: >100; Ratio [39]: >100; MIC90 [21]: 8 µg/mL (≈ 15.3 µM); MIC90 [22]: 4 µg/mL (≈ 7.64 µM); MIC90 [23]: 4 µg/mL (≈ 7.64 µM); MIC90 [24]: 4 µg/mL (≈ 7.64 µM); MIC90 [25]: 4 µg/mL (≈ 7.64 µM); MIC90 [26]: 8 µg/mL (≈ 15.3 µM); MIC90 [27]: 4 µg/mL (≈ 7.64 µM); MIC90 [28]: 4 µg/mL (≈ 7.64 µM); MIC90 [29]: 8 µg/mL (≈ 15.3 µM); MIC90 [30]: 4 µg/mL (≈ 7.64 µM); MIC90 [31]: 8 µg/mL (≈ 15.3 µM); MIC90 [32]: 4 µg/mL (≈ 7.64 µM); MIC90 [33]: 4 µg/mL (≈ 7.64 µM); Ratio [40]: 1; Ratio [41]: 2
CN[C@H](CC(C)C)C(=O)N[C@H]1C(=O)N[C@@H](CC(N)=O)C(=O)N[C@H]2C(=O)N[C@H]3C(=O)N[C@H](C(=O)N[C@H](C(=O)O)c4cc(O)cc(O)c4-c4cc3ccc4O)[C@H](O)c3ccc(c(Cl)c3)Oc3cc2cc(c3O[C@@H]2O[C@H](CO)[C@@H](O)[C@H](O)[C@H]2O[C@H]2C[C@](C)(N)[C@H](O)[C@H](C)O2)Oc2ccc(cc2Cl)[C@H]1O [VANCOMYCIN] | 1 (≈ 0.69 µM) | 2 (≈ 1.38 µM) | 2 (≈ 1.38 µM) | 2 (≈ 1.38 µM) | 2 (≈ 1.38 µM) | > 64 | > 64 | 1 (≈ 0.69 µM) | 1 (≈ 0.69 µM) | 1 (≈ 0.69 µM) | 2 (≈ 1.38 µM) | 1 (≈ 0.69 µM) | 1 (≈ 0.69 µM) | 2 (≈ 1.38 µM) | 1 (≈ 0.69 µM) | 1 (≈ 0.69 µM) | 1 (≈ 0.69 µM) | 1 (≈ 0.69 µM) | 0.5 (≈ 0.345 µM) | 2 (≈ 1.38 µM) | MIC90 [21]: 2 µg/mL (≈ 1.38 µM); MIC90 [22]: 1 µg/mL (≈ 0.69 µM); MIC90 [23]: 1 µg/mL (≈ 0.69 µM); MIC90 [24]: 1 µg/mL (≈ 0.69 µM); MIC90 [25]: 1 µg/mL (≈ 0.69 µM); MIC90 [26]: 1 µg/mL (≈ 0.69 µM); MIC90 [27]: 1 µg/mL (≈ 0.69 µM); MIC90 [28]: 0.5 µg/mL (≈ 0.345 µM); MIC90 [29]: 1 µg/mL (≈ 0.69 µM); MIC90 [30]: 2 µg/mL (≈ 1.38 µM); MIC90 [31]: 1 µg/mL (≈ 0.69 µM); MIC90 [32]: 1 µg/mL (≈ 0.69 µM); MIC90 [33]: 2 µg/mL (≈ 1.38 µM)
